Measurements reported in publication PMC10976477 (RSC Advances, 2024).

What was measured:
[1] = DPPH radical scavenging assay; conditions: read-out: IC50 (μM) ± SEM DPPH
[2] = ABTS radical cation scavenging assay; conditions: read-out: IC50 (μM) ± SEM ABTS
[3] = target: T1, human MAO-A (Homo sapiens, UniProt P21397); experiment: MAO-A inhibition assay; format: biochemical; conditions: read-out: IC50 (μM) ± SEM MAO-A; mean ± SEM; n = 3
T1 sequence (P21397 1-527): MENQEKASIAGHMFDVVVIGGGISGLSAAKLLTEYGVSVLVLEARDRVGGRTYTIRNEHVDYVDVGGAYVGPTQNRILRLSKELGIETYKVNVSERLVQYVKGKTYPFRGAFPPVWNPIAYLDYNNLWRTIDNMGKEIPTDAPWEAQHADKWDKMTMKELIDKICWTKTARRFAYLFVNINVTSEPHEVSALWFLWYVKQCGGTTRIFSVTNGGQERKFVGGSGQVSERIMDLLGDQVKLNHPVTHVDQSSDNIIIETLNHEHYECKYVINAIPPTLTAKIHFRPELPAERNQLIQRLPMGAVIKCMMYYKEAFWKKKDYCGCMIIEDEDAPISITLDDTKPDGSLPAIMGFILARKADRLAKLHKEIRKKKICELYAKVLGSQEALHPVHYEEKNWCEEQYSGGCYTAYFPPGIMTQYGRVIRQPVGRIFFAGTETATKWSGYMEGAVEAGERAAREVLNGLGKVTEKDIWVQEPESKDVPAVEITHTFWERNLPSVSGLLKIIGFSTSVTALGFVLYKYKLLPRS

[4] = target: T2, human MAO-B (Homo sapiens, UniProt P27338); experiment: MAO-B inhibition assay; format: biochemical
T2 sequence (P27338 1-520): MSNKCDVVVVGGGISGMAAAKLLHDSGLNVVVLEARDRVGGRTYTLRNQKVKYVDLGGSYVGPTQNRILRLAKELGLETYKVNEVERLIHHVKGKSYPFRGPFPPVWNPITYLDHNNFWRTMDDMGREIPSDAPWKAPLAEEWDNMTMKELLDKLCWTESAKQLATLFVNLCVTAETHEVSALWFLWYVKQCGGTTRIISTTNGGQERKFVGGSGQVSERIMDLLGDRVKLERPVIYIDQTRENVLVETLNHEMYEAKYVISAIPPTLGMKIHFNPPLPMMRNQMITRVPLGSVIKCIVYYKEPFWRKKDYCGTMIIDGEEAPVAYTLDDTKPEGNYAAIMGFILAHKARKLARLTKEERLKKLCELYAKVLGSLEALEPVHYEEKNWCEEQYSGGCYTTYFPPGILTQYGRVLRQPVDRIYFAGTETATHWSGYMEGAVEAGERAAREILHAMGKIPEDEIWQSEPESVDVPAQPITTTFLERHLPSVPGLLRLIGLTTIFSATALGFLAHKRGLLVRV

[5] = target: eeAChE (Electrophorus electricus, UniProt O42275); experiment: Cholinesterase inhibition, Ellman's assay; format: biochemical, electric eel
eeAChE, sequence (O42275 24-633): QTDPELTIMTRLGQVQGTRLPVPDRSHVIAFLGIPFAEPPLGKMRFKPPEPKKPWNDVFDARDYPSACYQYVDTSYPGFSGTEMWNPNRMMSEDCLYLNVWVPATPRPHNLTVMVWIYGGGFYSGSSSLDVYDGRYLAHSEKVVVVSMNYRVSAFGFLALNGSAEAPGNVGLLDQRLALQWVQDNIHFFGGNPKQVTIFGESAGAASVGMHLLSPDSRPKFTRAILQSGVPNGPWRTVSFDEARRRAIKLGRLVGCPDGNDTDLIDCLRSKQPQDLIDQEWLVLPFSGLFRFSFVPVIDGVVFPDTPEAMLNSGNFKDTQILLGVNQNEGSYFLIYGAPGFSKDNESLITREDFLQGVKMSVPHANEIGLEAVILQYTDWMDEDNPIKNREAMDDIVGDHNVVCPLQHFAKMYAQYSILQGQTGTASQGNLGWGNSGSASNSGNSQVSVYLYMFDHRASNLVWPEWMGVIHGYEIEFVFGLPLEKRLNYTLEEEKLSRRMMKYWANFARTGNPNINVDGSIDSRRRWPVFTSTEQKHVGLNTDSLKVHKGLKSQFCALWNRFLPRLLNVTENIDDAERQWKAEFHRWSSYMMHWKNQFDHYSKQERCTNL

[6] = target: eqBChE (Equus caballus, UniProt P81908); experiment: Cholinesterase inhibition, Ellman's assay; conditions: read-out: IC50 (μM) ± SEM eqBChE; mean ± SEM; n = 3
eqBChE, sequence (P81908 whole entry): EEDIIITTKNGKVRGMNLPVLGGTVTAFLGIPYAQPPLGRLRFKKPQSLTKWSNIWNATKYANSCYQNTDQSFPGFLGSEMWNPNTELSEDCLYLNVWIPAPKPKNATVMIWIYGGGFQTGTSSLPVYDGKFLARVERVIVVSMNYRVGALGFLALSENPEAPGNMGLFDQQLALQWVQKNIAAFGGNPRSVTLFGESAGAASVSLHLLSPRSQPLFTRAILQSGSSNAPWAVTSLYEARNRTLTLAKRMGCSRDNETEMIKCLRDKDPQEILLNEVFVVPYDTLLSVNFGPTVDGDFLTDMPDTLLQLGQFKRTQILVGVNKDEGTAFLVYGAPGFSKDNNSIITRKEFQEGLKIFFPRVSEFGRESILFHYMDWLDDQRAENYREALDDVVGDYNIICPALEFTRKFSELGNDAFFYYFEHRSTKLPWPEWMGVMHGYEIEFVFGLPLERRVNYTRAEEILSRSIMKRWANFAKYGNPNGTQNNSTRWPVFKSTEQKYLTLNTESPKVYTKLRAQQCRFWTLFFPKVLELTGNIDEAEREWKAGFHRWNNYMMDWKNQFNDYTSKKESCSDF

Structure (SMILES): COc1cc(/C=C/C(=O)Nc2nc3ccc(O)cc3s2)ccc1OCc1ccccc1 [Compound 22, (E)-3-(4-(Benzyloxy)-3-methoxyphenyl)-N-(6-hydroxybenzo[d]thi-azol-2-yl)acrylamide]
- IC50 [1]: 16.33 ± 0.1 µM
- IC50 [2]: 43.2 ± 1.34 µM
- IC50 [3]: 19.4 ± 1.1 µM
- IC50 ([4]; read-out: IC50 (μM) ± SEM MAO-B, mean ± SEM, n = 3): 0.348 ± 0.041 µM
- SI = IC50 of MAO-A/IC50 of MAO-B ([4]; selectivity index): 55
- IC50 ([5]; read-out: IC50 (μM) ± SEM eeAChE, mean ± SEM, n = 3): 0.172 ± 0.1 µM
- SI = IC50 of BChE/IC50 of AChE ([5]; selectivity index): 217
- IC50 [6]: 37.4 ± 1.17 µM
